Test results: patent US8637321B2, “Lipidomics approaches for central nervous system disorders” (priority 2005, dated 2014)

Assays:
[1] = system: patients with schizophrenia; test: Clinical Global Impressions (CGI) Scale psychopathology assessment; type: in vivo, human; settings: means and standard error; for CGI Affective, Post / CGI Negative, Post / CGI Positive, Post: CGI Scale 1 to 7, higher scores greater severity; for CGI Change, Post: overall global change rating at follow-up (1-2 responders, 3-6 non-responders)
From the text: (§1) Fifty male and female patients were recruited in two studies for metabolic profiling (Table VI and Table VII for demographics). Subjects ranged in age from 18 to 60 years and met the following inclusion criteria: a) DSM-IV criteria for schizophrenia, schizophreniform disorder, or schizoaffective disorder; b) newly hospitalized for a psychotic exacerbation in the setting of no antipsychotic treatment for at least 3 weeks prior to admission; and c) provided signed informed consent. Patients with psychoses due to psychoactive substance abuse or an underlying medical condition were excluded. Patients who were receiving treatment for diabetes mellitus or hyperlipidemia were also excluded.
The choice and dose of antipsychotic medication was based on the doctor's judgment. […] The treatment duration was 2-3 weeks. […] The 2-3 week duration permits the study of acute early effects.
Psychopathology was assessed on the Clinical Global Impressions (CGI) Scale at baseline and at the time of follow-up blood draws. Scores for the CGI Scale can range from 1 to 7, with higher scores indicating greater severity of illness (Guy (1975) ECDEU Assessment Manual for Psychopharmacology: Publication ADM 76-338. Washington, D.C.: US Department of Health, Education, and Welfare). An overall global change rating was also made at the time of the follow-up blood draw.

[2] = system: fatty acid elongation and desaturation (delta 5 desaturase, delta 6 desaturase, elongase); test: pathway analysis: lipid synthesis enzyme activities estimated from fatty acid ratios; type: in vivo, human
Description: Estimates of lipid synthesis enzyme activities were calculated using the precursor to product ratios for each enzyme. The following ratios were used: 18:3n6/18:2n6 for delta 6 desaturase; 20:3n6/18:3n6 for delta 6 elongase; 20:4n6/20:3n6 for delta 5 desaturase; 22:4n6/20:4n6 for elongase; 24:4n6/22:4n6 for elongase; 24:5n6/24:4n6 for delta 6 desaturase. The absolute numbers for each fatty acid metabolite were used for calculating metabolite changes.
To characterize fatty acid elongation and desaturation processes that might be modified in schizophrenia, various ratios of products to substrates in different fatty acid pathways were determined and are summarized in Table VIII.

[3] = cited from earlier work
[4] = system: patients with schizophrenia; test: plasma lipid profiling pre- and post-treatment with antipsychotics; type: in vivo, human; for CE18:3n3 I/D: key: I: increase; D: decrease; for DG18:3n6 I/D: key: I: increase; D: decrease; for FA.SFA I/D: key: I: increase; D: decrease; for FA16:0 I/D: key: I: increase; D: decrease; for FA18:0 I/D: key: I: increase; D: decrease; for FA20:4n6 I/D: key: I: increase; D: decrease; for FA20:5n3 I/D: key: I: increase; D: decrease; for FA24:0 I/D: key: I: increase; D: decrease; for LY.n9 I/D: key: I: increase; D: decrease; for LY18:0 I/D: key: I: increase; D: decrease; for LY18:1n9 I/D: key: I: increase; D: decrease; for LY18:3n6 I/D: key: I: increase; D: decrease; for LY20:1n9 I/D: key: I: increase; D: decrease; for LY20:2n6 I/D: key: I: increase; D: decrease; for LY20:3n9 I/D: key: I: increase; D: decrease; for LY20:4n3 I/D: key: I: increase; D: decrease; for LYLC I/D: key: I: increase; D: decrease; for PC.n9 I/D: key: I: increase; D: decrease; for PC14:0 I/D: key: I: increase; D: decrease; for PC16:1n7 I/D: key: I: increase; D: decrease; for PC18:0 I/D: key: I: increase; D: decrease; for PC18:1n9 I/D: key: I: increase; D: decrease; for PC18:3n3 I/D: key: I: increase; D: decrease; for PC18:3n6 I/D: key: I: increase; D: decrease; for PC20:2n6 I/D: key: I: increase; D: decrease; for PC20:3n9 I/D: key: I: increase; D: decrease; for PC20:4n3 I/D: key: I: increase; D: decrease; for PC20:5n3 I/D: key: I: increase; D: decrease; for PCLC I/D: key: I: increase; D: decrease; for PE.n9 I/D: key: I: increase; D: decrease; for PE18:1n9 I/D: key: I: increase; D: decrease; for PELC I/D: key: I: increase; D: decrease; for TG14:0 I/D: key: I: increase; D: decrease; for TG14:1n5 I/D: key: I: increase; D: decrease; for TG18:0 I/D: key: I: increase; D: decrease; for TG18:3n6 I/D: key: I: increase; D: decrease; for TG20:0 I/D: key: I: increase; D: decrease; for TG20:3n6 I/D: key: I: increase; D: decrease; for TG20:4n3 I/D: key: I: increase; D: decrease; for TG20:5n3 I/D: key: I: increase; D: decrease
From the text: as §1
The choice and dose of antipsychotic medication was based on the doctor's judgment. […] The treatment duration was 2-3 weeks. […] The mean duration of therapy was about 2 weeks for all 3 drugs in Study II. The drug groups were otherwise generally similar in severity of disease and physical characteristics (Table VI and Table VII). The 2-3 week duration permits the study of acute early effects.
All blood samples were drawn from subjects in the early morning after overnight fasting. Blood was drawn into vacutainer tubes containing sodium heparin, immediately placed on ice, and within 10 minutes, the blood was centrifuged and the plasma was transferred into polypropylene tubes and stored in a −30° C. freezer. All baseline samples were drawn prior to starting antipsychotic treatment in the study. If a patient had received a dose of an antipsychotic during the referral process (e.g., because of agitation when initially seen in a local emergency department), drawing of baseline plasma samples was delayed for 2-3 days. Follow-up samples were drawn after patients had received an average of 2-3 weeks of acute antipsychotic treatment.
A comprehensive assessment of plasma lipid profiles was performed (Lipomics Technologies, West Sacramento, Calif.) according to established methods (Watkins, et al. (2002) J. Lipid Res. 43(11):1809-17). Quantitative measurements of fatty acids in various lipid classes were determined as nmol fatty acid/gram of plasma. Lipid classes included cholesterol esters (CE), free cholesterol (FC), triacylglycerols (TG), diacylglycerols (DG), free fatty acids (FA), lysophosphatidylcholine (LY), phosphatidylcholine (PC), and phosphatidylethanolamine (PE). Lipid metabolites are identified by the lipid class and the fatty acid moiety. In the context of this invention, fatty acids are identified first by the number of carbons in the molecule (e.g., 20), the number of double bonds in the molecule (e.g., 4), and lastly the position of the double bonds (e.g., n6). To illustrate, PC20:4n6 denotes a phosphatidylcholine molecule containing a 20 carbon fatty acid with 4 double bonds at the n6 position.
Significant differences between pre- and post-drug treatment were assessed by paired t-tests. Evaluation of response to drug was assessed by two-way ANOVA. All statistics were done using R with the following functions: t.test, anova, prcomp, and g/m (Team RDC (2005) R: A language and environment for statistical computing. R Foundation for Statistical Computing). Before beginning statistical analyses, change detection was used to determine if observed signals were greater than that which could be expected by chance (noise). The chance distribution of p-values was determined by permuting the outcome groupings (Golub, et al. (1999) Science 286(5439):531-7). Briefly, P values for the appropriate comparison were calculated for each metabolite using a Student's t-test. The metabolites were ranked by p value from smallest to largest. The log of the rank versus the log of the p value for each comparison of interest was plotted and is represented by a colored line. The distribution of p values expected by chance at each rank is indicated by the shaded area. […]

[5] = Study I, after 2-3 weeks treatment
[6] = Study II, about 2 weeks treatment
[7] = Study I, plasma, post-treatment vs pre-treatment
[8] = Study II, plasma, post-treatment vs pre-treatment
[9] = plasma, mole percentage data, post treatment compared with pretreatment
[10] = plasma, total lipid class data (nmol/g sample), post treatment compared with pretreatment

Cc1nc2n(c(=O)c1CCN1CCC(c3noc4cc(F)ccc34)CC1)CCCC2 [Risperidone, risperidone]
CGI Affective, Post [1, 5]: 1.7 ± 0.3
CGI Negative, Post [1, 5]: 2 ± 0.4
CGI Positive, Post [1, 5]: 2.6 ± 0.2
CGI Change, Post ([1]; Study I): 2.9 ± 0.3
CGI Affective, Post [1, 6]: 1.2 ± 0.2
CGI Negative, Post [1, 6]: 1.4 ± 0.2
CGI Positive, Post [1, 6]: 3 ± 0.3
CGI Change, Post ([1]; Study II): 3 ± 0.3
apparent delta 5 desaturase activity ([2]; estimated from 20:4n6/20:3n6 in phosphatidylcholine, FIGS. 5A and 5B): decreased
alterations of fatty acid ratios in patients with schizophrenia ([2]; following treatment): essentially reversed toward normal ranges
effect on serum lipids ([3]; in vivo): discrepant data
weight gain, mean increases during the first year of therapy ([3]; prospective data): 4.4-5.1 lbs
concentration of arachidonic acid, AA (20:4n6) ([4]; Study I, plasma lipid classes, post-treatment vs pre-treatment): not significantly altered
CE concentration [4, 7]: trend toward an increase
DG concentration [4, 7]: trend toward an increase
FA (free fatty acid) class concentration [4, 7]: decrease
LY class concentration [4, 7]: increase
PC class concentration [4, 7]: increased
PE class concentration [4, 7]: increased
TG concentration [4, 7]: trend toward an increase
concentration of linoleic acid (18:2n6) and its immediate metabolic products 18:3n6 and 20:3n6 [4, 7]: increased
concentration of saturated fatty acids in PE, PC and LY [4, 7]: increased
concentration of total n6 and n3 fatty acids in PE, PC and LY [4, 7]: increased
n7 and n9 free fatty acids [4, 7]: decreases
DG concentration [4, 8]: significantly increased
PC18:3n6 concentration [4, 8]: increased
PC20:2n6 concentration [4, 8]: increased
PC20:3n6 concentration [4, 8]: increased
PC concentration [4, 8]: increased
PE concentration [4, 8]: increased
TG concentration [4, 8]: significantly increased
concentration of PC20:4n6 (arachidonic acid) [4, 8]: did not change
reduction in 18:0 in patients with schizophrenia ([4]; after treatment, FIG. 1): essentially reversed
triacylglycerol and phospholipid content of the plasma ([4]; following treatment): increased
fatty acid synthesis ([4]; inferred from 16:1n7, 18:1n7 and 18:1n9 concentrations): less evident
CE18:3n3 I/D [4, 9]: I
DG18:3n6 I/D [4, 9]: I
FA16:0 I/D [4, 9]: I
FA18:0 I/D [4, 9]: I
FA20:4n6 I/D [4, 9]: I
FA20:5n3 I/D [4, 9]: I
FA24:0 I/D [4, 9]: I
FA.SFA I/D [4, 9]: I
LY18:0 I/D [4, 9]: I
LY18:1n9 I/D [4, 9]: I
LY18:3n6 I/D [4, 9]: I
LY20:1n9 I/D [4, 9]: I
LY20:2n6 I/D [4, 9]: I
LY20:3n9 I/D [4, 9]: I
LY20:4n3 I/D [4, 9]: I
LY.n9 I/D [4, 9]: I
PC14:0 I/D [4, 9]: I
PC16:1n7 I/D [4, 9]: I
PC18:0 I/D [4, 9]: I
PC18:1n9 I/D [4, 9]: I
PC18:3n3 I/D [4, 9]: I
PC18:3n6 I/D [4, 9]: I
PC20:2n6 I/D [4, 9]: I
PC20:3n9 I/D [4, 9]: I
PC20:4n3 I/D [4, 9]: I
PC20:5n3 I/D [4, 9]: I
PC.n9 I/D [4, 9]: I
PE18:1n9 I/D [4, 9]: I
PE.n9 I/D [4, 9]: I
TG14:0 I/D [4, 9]: I
TG14:1n5 I/D [4, 9]: I
TG18:0 I/D [4, 9]: I
TG18:3n6 I/D [4, 9]: I
TG20:0 I/D [4, 9]: I
TG20:3n6 I/D [4, 9]: I
TG20:4n3 I/D [4, 9]: I
TG20:5n3 I/D [4, 9]: I
LYLC I/D [4, 10]: I
PCLC I/D [4, 10]: I
PELC I/D [4, 10]: I
levels of arachidonic and docosahexaenoic acids (20:4n6 and 22:6n3) ([4]; present studies, after treatment): remained essentially the same
